This note sets out measurements from PubChem BioAssay AID179 (DTP/NCI, 2004).

Each structure is given as a SMILES string. Activity calls are given as the source filed them.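 Rule for the calls: active = compounds giving half or more protection of infected cells from virus-caused growth loss, again on retest; inactive = the rest.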 Where a SMILES comes first, the peptide text is derived from it. Bridges are numbered along the chain shown (N, C = ends). The star is where a group is joined. Cbz = O=C(OCc1ccccc1)*; Boc = CC(C)(C)OC(=O)*; tBu = CC(C)(C)* Where only a bound is given, the exact number is not on record here.

This test deals with CEM cells HIV-1 protection, formazan growth assay. The test is described as follows: NCI AIDS Antiviral Assay. As to conditions: for IC50: measured here: growth of uninfected CEM cells. In outline: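 CEM (human) cells, HIV-1 infected vs uninfected, 5-point dosing, formazan growth read-out. Retest threshold 50% protection.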

One may read the EC50 as the midpoint of the concentration-response curve. The term IC50 denotes the point on the concentration scale where inhibition reaches its midpoint. The low end stands for greater potency in that assay, the high end for weaker potency in that assay. With `COC(=O)c1cccc2cccc(C(=O)N(C)CCN(C)C)c12`, the EC50 is over 708 µM and the half-maximal inhibitory concentration (IC50) is over 708 µM.
With `CCCC(NCCCCCCNC(CCC)C(=O)O)C(=O)O` (centres undefined), the EC50 is over 525 µM and the IC50 was over 525 µM.
Take `O=c1[nH][nH]c(=O)c2nc(Nc3ccco3)ncc12`: the EC50 was over 240 µM and the IC50 was over 240 µM.
For `COc1ccc(CC2=CC(=O)C(=O)C=C2C)cc1`, the EC50 was over 56.2 µM and the IC50 came to 30.2 µM.
For `COC1=C(C(=O)OC(C)(C)C)C2C(C(=O)OC(C)(C)C)C(OC)=C(C(=O)OC(C)(C)C)C2C1C(=O)OC(C)(C)C` (centres undefined), the EC50 is over 31.6 µM and the IC50 was 17 µM.
As to `Cc1ccc(SSc2ccc(C)cc2)cc1`, the EC50 is over 20 µM, the result was inactive and the IC50 was 3.55 µM.
Consider `COC1(OC)CCCCC2c3cccc(OC(C)=O)c3C21OC(C)=O` (centres undefined), for which the EC50 is 72.4 µM and the half-maximal inhibitory concentration (IC50) came out at 214 µM.
Take `C=CCC1C(=O)CC2(C)C(CC=C)C(=O)CC12C` (centres undefined): the outcome was inactive.
Turning to `O=C1C2=C(c3ccccc31)C(c1ccccc1)NC(=S)N2` (centres undefined), the EC50 is over 89.1 µM and the IC50 is 37.2 µM.
As for `COC(=O)CCC1=NCC(C)(C)O1`, the EC50 was over 200 µM and the IC50 is over 200 µM.
Take `CN(CCO)c1nc(N)cc(=O)[nH]1`: the EC50 is over 1350 µM and the IC50 is over 1350 µM.
Turning to `CC1=C(C(=O)Nc2ccccc2C)C(c2ccc(C3C(C(=O)Nc4ccccc4C)=CNC=C3C(=O)Nc3ccccc3C)cc2)C(C(=O)Nc2ccccc2C)=C(C)N1`, the result was inactive.
Consider `C[Si](C)(C)C1=C([Si](C)(C)C)C(Cl)(Cl)C1=O`, for which the EC50 was over 20 µM and the IC50 was 3.98 µM.
For `C/C(=N\N=C(/C)C1CC(CC(=O)O)C1(C)C)C1CC(CC(=O)O)C1(C)C` (centres undefined), in that order: over 186 µM and over 186 µM.
For `O=C(O)CC(SSCc1ccccc1)C(=O)O` (centres undefined), in that order: over 200 µM and over 200 µM.
For `CN1CN(c2ccccc2)C2(CCN(CCCN(C)c3ccc(F)cc3)CC2)C1=O`, in that order: over 200 µM and 35.5 µM.
Take `Cn1c(SCc2ccc([N+](=O)[O-])cc2)nnc1C12CC3CC(CC(C3)C1)C2`: the EC50 was over 200 µM and the IC50 was found to be 110 µM.
For `CSC(=Nc1ccccc1Cl)NC(=O)c1ccc(Br)cc1`, in that order: over 10.2 µM and over 10.2 µM.
As to `CCCSCC(P(=O)(O)O)P(=O)(O)O`, the outcome was inactive.
Take `CC1SC(N)=NN=C1c1c(O)c2ccccc2oc1=O` (centres undefined): the EC50 is over 200 µM and the IC50 turned out to be 148 µM.
For `Nc1ccc(S(N)(=O)=O)cc1SSc1cc(S(N)(=O)=O)ccc1N`, in that order: 55 µM and 132 µM.
In the case of `CC(C)(C)OC(=O)N(CCCCN(CCCNC(=O)C(F)(F)F)C(=O)OC(C)(C)C)CCCNC(=O)C(F)(F)F`, the outcome was inactive.
On to `COc1cc(C2c3cc4c(cc3OC(NN)C2C)OCO4)cc(OC)c1O` (centres undefined), for which the outcome was inactive.
Take `COc1nc2n[nH]nc2c(=O)[nH]1`: the result was inactive.
Regarding `O=C(Nc1cccc(C2=NCCN2)c1)Nc1cccc(C2=NCCN2)c1`, the EC50 was over 200 µM and the IC50 was determined as 32.4 µM.
Regarding `COc1cc2c(cc1OC)C13CCN4CC5=CCOC6CC(=O)N2C1C6C5C4C3` (centres undefined) (tested in a mixture with another compound), the EC50 was over 209 µM.
Take `CS(=O)(=O)c1ccc(C(=O)O[C@@H]2C(=O)N3CC[C@H]4OC(O)[C@@H]2[C@H]43)cc1` (some centres undefined): the EC50 was over 200 µM and the IC50 is over 200 µM.
For `Cc1cc2c(cc1C)n1c(N(C)C)[n+]3ccccc3c1c1c3cccc[n+]3c(N(C)C)n21`, the EC50 is over 151 µM and the IC50 stood at 21.9 µM.
For `CN(C)c1nc(N)c(N=O)c(=O)[nH]1`, in that order: over 200 µM and 178 µM.
For `CC(OC(C)(C)C)C(NC(=O)C(CCCCNC(=O)OC(C)(C)C)NC(=O)C(Cc1c[nH]c2ccccc12)NC(=O)C(Cc1ccccc1)NC(=O)OCc1ccccc1)C(=O)NC(Cc1ccccc1)C(=O)O` (centres undefined) (Cbz-FWK(Boc)T(tBu)F-OH; configuration not given here), in that order: over 200 µM and 35.5 µM.
As for `CCOC(=O)CC1C(O)C(=O)N(C)C1c1ccccc1` (centres undefined), the result was inactive.
In the case of `Cc1ccc(C)c2c1C1CCCCC3(OCCCO3)C21O` (centres undefined), the EC50 is over 200 µM and the IC50 was over 200 µM.
For `O=C(CCCN1CCC2(CC1)OC(=O)N(c1ccccc1)C2=O)c1ccccc1`, the EC50 is over 200 µM and the IC50 is over 200 µM.
Regarding `O=C1c2c(O)ccc(O)c2C(=O)c2c(NCCCCCO)ccc(NCCCCCO)c21`, the outcome was inactive.
For `Cc1cn(C2OC(CO)(C(F)(F)F)C(O)C2O)c(=O)[nH]c1=O` (centres undefined), the EC50 was over 200 µM and the IC50 was over 200 µM.
As to `O=C(O)CCSC(=S)NCCNC(=S)SCCC(=O)O`, the EC50 was over 708 µM and the half-inhibitory concentration (IC50) was found to be 437 µM.
Turning to `O=C1C(Cl)N(c2ccccc2[N+](=O)[O-])C1c1c[nH]c2ccccc12` (centres undefined), the EC50 was over 275 µM and the IC50 worked out at 132 µM.
For `CCOC(=O)C1CSSCC(N)C(=O)N1` (stereo not drawn) (H-Cys-Cys-OEt; disulfide 1-2; configuration not given here), in that order: over 200 µM and over 200 µM.
For `C=CC[C@]12C=C(OC)[C@@H](O)[C@](OC)(C(c3cc(OC)c4c(c3)OCO4)[C@H]1C)[C@H]2OC(C)=O` (some centres undefined), in that order: over 200 µM and 129 µM.
For `CNC(=O)c1cc2nc3ccccc3c(=O)n2c2ccccc12`, in that order: over 100 µM and over 100 µM.
For the molecule `COC(=O)/C=C(/C(=O)OC)C1(C)c2cc(C(=O)OC)c(C(=O)OC)c(N)c2C(=N)N1c1ccccc1` (centres undefined), the outcome was inactive.
`OCCN(CCO)c1ccc2c(-c3ccccc3)cc(N(CCO)CCO)nc2n1`: the EC50 was over 200 µM and the IC50 was determined as 120 µM.
As for `O=C(N1CCCC1)C1(c2cccc(Cl)c2)CCNCC1`, the EC50 is over 200 µM and the IC50 is 129 µM.
`O=C(NO)c1ccc(OCc2ccccc2)cc1`: the EC50 is over 200 µM and the IC50 was 16.2 µM.
As for `COc1ccc(-c2oc3cc(OC(C)=O)cc(OC(C)=O)c3c(=O)c2OC)cc1`, the result was inactive.
For the molecule `Cn1cnc2ccccc2c1=S`, the EC50 was over 200 µM and the IC50 amounted to 182 µM.
On to `O=C(CC1(O)C(=O)Nc2c(Cl)cc(Cl)cc21)c1ccc(F)cc1` (centres undefined), for which the EC50 was over 28.2 µM and the IC50 is over 28.2 µM.
For the molecule `COc1ccc(/C=N/NC(=O)c2cnc3[nH]c(=O)n(C)c(=O)c3c2)cc1`, the EC50 was over 200 µM and the IC50 is over 200 µM.
In the case of `CC1CC(=O)Nc2ccc(Cl)cc2N1C(=O)CN1CCC(CCCCN(C)C)CC1` (centres undefined), the EC50 is over 251 µM and the concentration for half-maximal inhibition (IC50) worked out at 129 µM.
For `O=c1ccc2cc3ccoc3c(OCCOCCOCCOCCOc3c4occc4cc4ccc(=O)oc34)c2o1`, in that order: over 79.4 µM and 10.7 µM.
In the case of `N#CC1CC(c2cccs2)Nc2ccccc2N1` (centres undefined), the EC50 is over 141 µM and the half-inhibitory concentration (IC50) is 46.8 µM.
Consider `CN(C(=O)/C=C/c1ccccc1)C1C2CN3CCC(O2)C13` (centres undefined), for which the result was inactive.
Turning to `COC1CN(C)C(=Nc2cccc3ccccc23)S1` (centres undefined), the EC50 was over 200 µM and the IC50 turned out to be 112 µM.
For `CCc1nnc(CC)n1N1C(=O)CCC1=O`, in that order: over 200 µM and over 200 µM.
For `Clc1ccc(Nc2nnc(CCCCCCCCc3nnc(Nc4ccc(Cl)cc4)o3)o2)cc1`, in that order: over 200 µM and 45.7 µM.
`O=NN(CC1(O)OCC(O)C(O)C1O)C(Cc1c[nH]c2ccccc12)C(=O)O` (centres undefined): the result was inactive.
Turning to `COc1cc(/C=C2\C(=O)N(c3cc(Cl)ccc3Cl)C(c3ccccc3)S2(=O)=O)cc(OC)c1OC` (centres undefined), the EC50 is over 200 µM and the IC50 was 120 µM.
For `CCOC(=O)C1C(C(C)C)C2(C#N)C(=N)OC1(C)C2(C#N)C#N` (centres undefined), in that order: over 200 µM and 49 µM.
For `NS(=O)(=O)c1nnc(NC(=O)C23CC4CC(CC(C4)C2)C3)s1`, in that order: over 200 µM and 81.3 µM.
`S=c1n(-c2ccc(Cl)cc2)c2nc3ccccc3nc(/c2=N\Nc2ccc(Br)cc2)n1-c1ccccn1`: the EC50 was over 32.4 µM and the IC50 came out at 30.9 µM.
For `CN1CCN(CCCCN2c3ccccc3Sc3cc(N=[N+]=[N-])ccc32)CC1`, in that order: over 200 µM and 3.63 µM.
Consider `CCCNCc1c2c(O)c3c(O)c(C)c4c(c3c1O)C(=O)C(C)(O/C=C/C(OC)C(C)C(OC(C)=O)C(C)C(O)C(C)C(O)C(C)/C=C/C=C(/C)C(=O)N2)O4` (centres undefined), for which the EC50 was over 200 µM and the IC50 amounted to 3.8 µM.
For `CN(C)CCNc1c([N+](=O)[O-])sc2ccc(Cl)cc12`, in that order: over 200 µM and 16.6 µM.
Take `CCOC(=O)C1(C#N)CC1`: the outcome was inactive.
As to `COC(=O)C12C3C4(C(=O)OC)C1C1(C(=O)OC)C2C3(C(=O)OC)C41C(=O)N(C(C)C)C(C)C` (centres undefined), the EC50 was over 200 µM and the IC50 was over 200 µM.
`O=C(COC(=O)c1cccc2c(=O)c3ccccc3[nH]c12)Nc1ccc(S(=O)(=O)Nc2ncccn2)cc1`: the outcome was inactive.
On to `COC(=O)C1C2CC3C(C2=O)C31` (centres undefined), for which the EC50 is over 200 µM and the IC50 was over 200 µM.
Regarding `C=CCC1(Sc2ccccn2)Sc2ccc3ccccc3c2-c2c(ccc3ccccc23)S1`, the EC50 is over 100 µM and the IC50 was over 100 µM.
On to `COc1ccc(N=C(C)C(C)=Nc2ccc(OC)cc2)cc1`, for which the result was inactive.
For `Nc1ccn(C2CSC(CO)O2)c(=O)n1` (centres undefined), the EC50 was 0.145 µM and the IC50 is 10 µM.
For `CCOC(=O)c1c(NC(=O)c2cccs2)sc2c1CCC2`, in that order: 195 µM and over 200 µM.
For `CCOC(=O)NC(Nc1cc(Cl)ccc1OC)(C(F)(F)F)C(F)(F)F`, in that order: over 200 µM and 102 µM.
